Source: patent US6372919B1 (DOV Pharmaceutical, Inc., priority 2001, dated 2002)

Legend:
[1] = biological target: norepinephrine uptake site (norepinephrine transporter), rat forebrain membranes (Rattus norvegicus, UniProt Q9WTR4); conditions: comparison of Table 1 Ki values
Experimental: Reactions were carried out in 50 mM TRIS-HCl (pH 7.4), containing 300 mM NaCl and 5 mM KCl at 0° C. to 4 ° C for 4 hours. The reaction was terminated by rapid vacuum filtration onto glass fiber filters. Radioactivity trapped in the filters was determined and compared to control values in order to ascertain the interactions of the test compound with the norepinephrine uptake site.

[2] = biological target: T1, serotonin transporter binding site, rat forebrain membranes (Rattus norvegicus, UniProt P31652); experiment: Serotonin Transporter Binding Assay ([3H]-citalopram); conditions: comparison of Table 2 Ki values
T1 construct: The receptor source was rat forebrain membranes; from tissue; host or cells: rat forebrain membranes
Experimental: Reactions were carried out in 50 mM TRIS-HCl (pH 7.4) containing 120 mM NaCl and 5 mM KCl at 25° C. for 60 minutes. The reaction was terminated by rapid vacuum filtration onto glass fiber filters. Radioactivity trapped in the filters was determined using liquid scintillation spectrometry and compared to control values in order to ascertain any interactions of test compound with the serotonin transporter binding site.

Sequence of norepinephrine uptake site (norepinephrine transporter), rat forebrain membranes (Q9WTR4 1-597): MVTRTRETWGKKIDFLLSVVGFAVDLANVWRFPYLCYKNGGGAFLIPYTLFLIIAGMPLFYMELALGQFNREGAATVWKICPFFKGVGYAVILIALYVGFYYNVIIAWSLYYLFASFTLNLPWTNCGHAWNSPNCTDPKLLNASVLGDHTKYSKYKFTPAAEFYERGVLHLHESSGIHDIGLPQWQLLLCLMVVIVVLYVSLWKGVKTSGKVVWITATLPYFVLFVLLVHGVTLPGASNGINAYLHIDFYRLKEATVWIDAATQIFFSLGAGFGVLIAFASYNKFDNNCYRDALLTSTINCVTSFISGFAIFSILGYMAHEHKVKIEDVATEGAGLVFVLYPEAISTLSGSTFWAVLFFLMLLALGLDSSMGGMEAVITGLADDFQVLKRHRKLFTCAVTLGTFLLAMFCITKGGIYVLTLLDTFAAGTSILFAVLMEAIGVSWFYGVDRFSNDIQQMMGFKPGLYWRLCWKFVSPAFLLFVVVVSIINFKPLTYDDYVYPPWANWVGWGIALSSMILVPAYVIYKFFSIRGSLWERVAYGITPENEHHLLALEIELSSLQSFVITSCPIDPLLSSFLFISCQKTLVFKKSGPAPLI
T1 sequence (P31652 whole entry): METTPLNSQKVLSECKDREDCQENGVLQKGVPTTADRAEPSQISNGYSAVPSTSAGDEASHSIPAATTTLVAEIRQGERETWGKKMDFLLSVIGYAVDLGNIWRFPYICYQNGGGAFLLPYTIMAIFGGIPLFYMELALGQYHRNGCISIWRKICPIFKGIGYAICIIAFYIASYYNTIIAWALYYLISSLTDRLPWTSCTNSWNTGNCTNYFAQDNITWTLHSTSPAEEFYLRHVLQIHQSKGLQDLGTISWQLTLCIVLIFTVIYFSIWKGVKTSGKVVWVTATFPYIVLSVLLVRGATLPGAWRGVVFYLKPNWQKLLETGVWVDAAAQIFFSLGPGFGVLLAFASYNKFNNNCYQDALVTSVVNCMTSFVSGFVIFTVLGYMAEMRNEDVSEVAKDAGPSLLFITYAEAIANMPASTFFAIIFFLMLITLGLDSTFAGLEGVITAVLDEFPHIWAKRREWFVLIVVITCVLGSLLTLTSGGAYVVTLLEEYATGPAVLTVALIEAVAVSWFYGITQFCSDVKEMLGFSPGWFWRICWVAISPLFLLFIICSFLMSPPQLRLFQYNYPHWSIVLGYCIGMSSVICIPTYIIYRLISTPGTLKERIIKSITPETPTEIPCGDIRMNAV

With Cl.Clc1ccc([C@@]23CNC[C@@H]2C3)cc1Cl (single isomer, unassigned) [(+)-1-(3,4-dichlorophenyl)-3-azabicyclo[3.1.0]hexane hydrochloride] the “affinity for the norepinephrine uptake site compared with (±)-1-(3,4-dichlorophenyl)-3-azabicyclo[3.1.0]hexane HCl” value [1] was “significantly greater affinity” and the “affinity for the serotonin uptake site compared with (±)-1-(3,4-dichlorophenyl)-3-azabicyclo[3.1.0]hexane HCl” value [2] was “significantly greater affinity”.
